The values below come from patent publication US11332463B2, “Spiropiperidine allosteric modulators of nicotinic acetylcholine receptors” (Merck Sharp & Dohme Corp., priority 2018, dated 2022).

Where two headings read alike, the source gives them in different places. Some results are limits rather than exact numbers.

The target of this assay is T1, human α7 nicotinic acetylcholine receptor (HEK cell line stably expressing human RIC-3 and human α7) (Homo sapiens, UniProt P36544).
T1 construct: host or cells: HEK cell line (PrecisION hnAChR α7/RIC-3)
T1 sequence (P36544 23-502): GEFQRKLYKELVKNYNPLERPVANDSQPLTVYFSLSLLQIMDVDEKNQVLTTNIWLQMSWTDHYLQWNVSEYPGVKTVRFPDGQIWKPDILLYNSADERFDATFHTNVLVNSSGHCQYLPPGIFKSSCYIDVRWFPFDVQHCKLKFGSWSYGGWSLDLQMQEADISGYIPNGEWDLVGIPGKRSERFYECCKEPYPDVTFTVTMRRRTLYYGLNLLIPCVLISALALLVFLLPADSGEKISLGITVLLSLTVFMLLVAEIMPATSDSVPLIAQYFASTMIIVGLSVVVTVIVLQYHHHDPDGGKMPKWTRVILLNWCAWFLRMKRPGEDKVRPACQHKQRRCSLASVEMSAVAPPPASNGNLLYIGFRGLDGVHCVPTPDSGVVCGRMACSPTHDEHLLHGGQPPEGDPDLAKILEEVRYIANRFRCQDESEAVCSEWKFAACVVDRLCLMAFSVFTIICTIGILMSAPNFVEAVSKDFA
In words: Automated patch-clamp electrophysiology functional assay (Assay A), IonFlux HT, whole-cell population patch. The assay is classed as cell-based. For orientation: In patch-clamp work, channel activity is measured electrically.

The mark [1] stands for this setting: HEK cells expressing human α7/RIC-3, test compound with or without 40 μM acetylcholine, holding potential −60 mV, room temperature, read-out: α7 nAChR Potency.
The mark [2] stands for this setting: automated patch-clamp electrophysiology functional assay (Assay A), read-out: α7 nAChR EC50.

Consider `NS(=O)(=O)N1CCC2(CC1)CC2c1nc(-c2ccnc(N3CCCC3)c2)no1` (racemic) [Example C2], for which the EC50 under setting [1] is 500 to 5000 nM. In the case of `Cc1c(-c2nc([C@@H]3C(F)(F)C34CCN(S(N)(=O)=O)CC4)no2)c(C(F)(F)F)nn1C1CC1` [Example E54], the EC50 runs as follows: under setting [1], 100 to 500 nM; under setting [2], 500 nM. In the same order, the values of `Cn1nccc1-c1nc([C@@H]2C(F)(F)C23CCN(S(N)(=O)=O)CC3)no1` [Example E43] are 100 to 500 nM and 500 nM. Consider `NS(=O)(=O)N1CCC2(CC2c2nc(-c3cccc(OC(F)F)c3)no2)C(F)C1` (single isomer, unassigned) [Example I2], for which the EC50 under setting [1] lay within 500 to 5000 nM and the EC50 under setting [2] turned out to be 1000 nM.

Take `NS(=O)(=O)N1CCC2(CC1)C[C@H]2c1noc(-c2ccc(Cl)cc2OC(F)F)n1` [Example D10]: the EC50 is, setting by setting: under setting [1], under 100 nM; under setting [2], 88 nM. For `NS(=O)(=O)N1CCC2(CC1)C[C@H]2c1noc(-c2ncccc2OCC(F)(F)F)n1` [Example E78], the EC50 under setting [1] was in the range of 500 to 5000 nM and the EC50 under setting [2] came out at 1200 nM. In the same order, the values of `NS(=O)(=O)N1CCC2(CC1)[C@H](c1ccn(-c3ccc(F)cc3C(F)(F)F)n1)C2(F)F` (stereo in doubt) [Example 36, 1,1-Difluoro-2-{1-[4-fluoro-2-(trifluoromethyl)phenyl]-1H-pyrazol-3-yl}-6-azaspiro[2.5]octane-6-sulfonamide] are 500 to 5000 nM and 890 nM.

For the compound `N#CC1(c2ccccc2-c2nc([C@@H]3CC34CCN(S(N)(=O)=O)CC4)no2)CC1` [Example E75], the EC50 was 5000 to 50000 nM under setting [1] and 6300 nM under setting [2].

On to `Cc1cn(C2CC2)c2ccc(-c3nc([C@@H]4CC45CCN(S(N)(=O)=O)CC5)no3)cc12` [Example E1], for which the EC50 was 100 to 500 nM under setting [1] and 310 nM under setting [2]. Taken in the same sequence, the figures for `Cc1onc(-c2nc([C@@H]3CC34CCN(S(N)(=O)=O)CC4)no2)c1C` [Example E27] were 500 to 5000 nM and 1300 nM. Regarding `NS(=O)(=O)N1CCC2(CC1)[C@H](c1noc(-c3ccnnc3C3CC3)n1)C2(F)F` [Example E49], the EC50 under setting [1] lay within 100 to 500 nM and the EC50 under setting [2] was found to be 270 nM. In the same order, the values of `NS(=O)(=O)N1CCC2(CC1)C[C@H]2c1nnc(-c2ccccc2OCC(F)(F)F)o1` [Example F6] are 500 to 5000 nM and 590 nM. As to `NS(=O)(=O)N1CCC2(CC1)[C@H](c1noc(-c3cnn4c3CSC4)n1)C2(F)F` [Example E53], the EC50 is 500 to 5000 nM under setting [1] and 1200 nM under setting [2].

With `NS(=O)(=O)N1CCC2(CC1)C(c1nc(-c3ccnc(C(F)(F)F)c3)no1)C2(F)F` (stereo not drawn) [Example C8], the EC50 runs as follows: under setting [1], 500 to 5000 nM; under setting [2], 1300 nM. On to `CC(C)Oc1cc(-c2nc([C@@H]3C(F)(F)C34CCN(S(N)(=O)=O)CC4)no2)ccn1` [Example E51], for which the EC50 is, setting by setting: under setting [1], 500 to 5000 nM; under setting [2], 530 nM. As to `CC(C)(O)c1ccc(-c2nc([C@@H]3CC34CCN(S(N)(=O)=O)CC4)no2)cc1` [Example D23], the EC50 reads like this: under setting [1], 500 to 5000 nM; under setting [2], 1400 nM. With `Cc1ccc(C(F)(F)F)nc1-c1nc([C@@H]2CC23CCN(S(N)(=O)=O)CC3)no1` [Example E19], the EC50 was 100 to 500 nM under setting [1] and 290 nM under setting [2]. In the same order, the values of `Cc1cnn(CC(F)(F)F)c1-c1nc([C@@H]2CC23CCN(S(N)(=O)=O)CC3)no1` [Example 8, (1R)-1-{5-[4-Methyl-1-(2,2,2-trifluoroethyl)-1H-pyrazol-5-yl]-1,2,4-oxadiazol-3-yl}-6-azaspiro[2.5]octane-6-sulfonamide] are 100 to 500 nM and 230 nM.

Turning to `NS(=O)(=O)N1CCC2(C(F)C1)C(c1nc(-c3conc3C3CC3)no1)C2(F)F` (mixture of isomers) [Example I11], the EC50 under setting [1] was in the range of 500 to 5000 nM and the EC50 under setting [2] was 820 nM. As for `CC(c1nc([C@@H]2CC23CCN(S(N)(=O)=O)CC3)no1)c1ccccc1Cl` (mixture of isomers) [Example E8], the EC50 under setting [1] lay within 500 to 5000 nM and the EC50 under setting [2] amounted to 3900 nM.
